The values below come from EP4620956A1, “PARP1 INHIBITORS” (Zhejiang Yangli Pharmaceutical Technology Co., Ltd., priority 2022, dated 2024).

The test system of assay [1] is MDA-MB-436 xenograft tumour. Kind of assay: Anti-tumour effect in MDA-MB-436 subcutaneous xenograft tumour mouse model. Type of assay: in vivo. The settings on record: same dose, MDA-MB-436 xenograft mice. Here is the method: Example 4 was further verified in vivo. A subcutaneous xenograft tumour mouse model of the BRCA1-mutated MDA-MB-436 cell line was selected. Human breast cancer MDA-MB-436 cells (ATCC, HTB-130) were cultured in vitro in a monolayer, with the culture conditions of L-15 medium supplemented with 10% foetal bovine serum, 1% penicillin-streptomycin solution, and 0.01 mg/mL bovine insulin, and cultured at 37°C in a CO2-free incubator. The cells were routinely digested and passaged twice a week using trypsin-EDTA. When the cell confluency reached 80%-90%, the cells were harvested and counted, and 0.2 mL of 1 × 10^7 MDA-MB-436 cells were subcutaneously inoculated on the right back of each mouse (PBS : Matrigel = 1 : 1). When the mean tumour volume reached 152 mm^3, the mice were grouped for drug administration. The day of drug administration was set as Day 0. The tumour volume and the body weight of the mice were monitored twice a week, and the drug treatment lasted for 28 days.
The diameter of the tumour was measured with a vernier calliper. The tumour volume is calculated according to the following equation: V = 0.5a × b^2, where a and b represent the long and short diameters of the tumour, respectively. The tumour inhibition effect of the compound was evaluated by relative tumour shrinkage rate Reg%. Reg% reflects the rate of tumour volume reduction after treatment. Reg% = (V0-Vt)/V0×100%, where V0 is the tumour volume measured at the time of grouping for drug administration (i.e., d0), and Vt is the tumour volume measured at a certain time point.
The criteria for compound response in the mouse model were adapted from mRECIST (Modified Response Evaluation Criteria in Solid Tumours) (Gao et al, 2015), and are specifically defined as follows: [formula] • PR (Partial Response): BestResponse < −50% and BestAvgResponse < −20%; [formula] • SD (Stable Disease): BestResponse < 35% and BestAvgResponse < 30%; [formula] • PD (Progressive Disease): other cases; • ORR% is the sum of the proportions of Complete Response (CR) and Partial Response (PR).
Statistical analysis was performed using Prism software, including the mean value (Mean) and standard error of the mean (SEM) of the tumour volume at each time point for each group. For the statistical analysis of TV, the original TV data from each measurement were used to compare the differences between groups. Two-way ANOVA was applied to include the two factors, i.e., drug administration and time for analysis, followed by the Tukey's multiple comparisons test, wherein p < 0.05 was considered statistically significant.

The target of another assay is T1, PARP6 (Homo sapiens, UniProt Q2NL67).
T1 construct: purchased BPS 80506
T1 sequence (Q2NL67 whole entry): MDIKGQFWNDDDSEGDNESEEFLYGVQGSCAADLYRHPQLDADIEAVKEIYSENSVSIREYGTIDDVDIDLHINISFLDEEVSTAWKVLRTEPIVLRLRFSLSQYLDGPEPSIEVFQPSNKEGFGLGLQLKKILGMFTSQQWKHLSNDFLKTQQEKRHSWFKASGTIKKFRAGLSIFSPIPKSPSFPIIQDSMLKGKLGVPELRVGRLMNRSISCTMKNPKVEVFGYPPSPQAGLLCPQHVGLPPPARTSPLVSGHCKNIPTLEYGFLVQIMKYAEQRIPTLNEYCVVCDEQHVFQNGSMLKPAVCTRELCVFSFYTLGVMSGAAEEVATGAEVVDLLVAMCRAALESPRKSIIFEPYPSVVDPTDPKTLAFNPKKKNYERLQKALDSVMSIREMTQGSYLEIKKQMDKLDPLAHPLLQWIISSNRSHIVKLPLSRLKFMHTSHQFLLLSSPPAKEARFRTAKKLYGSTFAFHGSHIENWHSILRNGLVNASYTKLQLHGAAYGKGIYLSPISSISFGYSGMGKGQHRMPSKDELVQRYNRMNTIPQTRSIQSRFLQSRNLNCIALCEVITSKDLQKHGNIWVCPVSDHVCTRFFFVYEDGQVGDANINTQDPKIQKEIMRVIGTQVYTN
Description: Inhibition of PARP6 enzyme activity (chemiluminescence). It is filed as biochemical.

The next assay has as its target T2, PARP11 (Homo sapiens, UniProt Q9NR21).
T2 construct: purchased BPS 80511
T2 sequence (Q9NR21 1-338): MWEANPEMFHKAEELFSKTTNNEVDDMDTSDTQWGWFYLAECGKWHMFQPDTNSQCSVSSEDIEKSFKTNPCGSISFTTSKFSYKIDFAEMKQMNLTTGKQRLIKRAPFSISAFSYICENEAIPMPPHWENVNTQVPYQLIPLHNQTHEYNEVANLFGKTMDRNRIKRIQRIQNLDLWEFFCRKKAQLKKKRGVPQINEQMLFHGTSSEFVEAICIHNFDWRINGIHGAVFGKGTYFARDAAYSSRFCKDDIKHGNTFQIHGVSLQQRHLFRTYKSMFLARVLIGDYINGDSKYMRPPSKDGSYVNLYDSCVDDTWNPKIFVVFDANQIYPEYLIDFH
Kind of assay: Inhibition of PARP11 enzyme activity (chemiluminescent assay kit). Type of assay: biochemical.

In another assay the test system is DLD-1 BRCA2^-/-. Kind of assay: Anti-proliferative activity (CellTiter-Glo, 7 days), DLD-1 BRCA2-/-. Type of assay: cell-based, human. The settings on record: Homo sapiens, DLD-1, 168 h; BRCA2-mutated, 7 days.
The next assay has as its system A549 WT. Kind of assay: Cellular PARylation inhibition, high-content imaging, A549 WT. Type of assay: cell-based. The settings on record: Homo sapiens, PARylation at the cellular level. Here is the method: The inhibitory effect of the compounds on PARP1/PARP2 enzyme activity at the cellular level was detected using high-content imaging. A549 WT, PARP1-KO and PARP2-KO cell lines were established in-house, and the cells were revived. After the cells were stable, a sufficient number of cells were collected and 100 µL of the cell suspension was seeded into a 96-well plate. The next day, the example compounds with serially diluted concentrations were added. […] The plate was incubated for 1.5 hours (A549 WT and PARP2-KO cell lines) or 2 hours (PARP1-KO cell line). After removing the supernatant, 0.4 mM H2O2 was added and incubation was carried out for 10 minutes (A549 WT and PARP2-KO cell lines) or 1.5 mM H2O2 was added and incubation was carried out for 15 minutes (PARP1-KO cell line) to induce extensive cellular DNA damage. After removing the supernatant, the cells were fixed with 4% paraformaldehyde for 20 minutes, followed by treatment with 0.5% Triton X-100 for 20 minutes to increase the permeability of the cell membrane. After that, the cells were incubated with 3% BSA for 1 hour to prevent non-specific binding. […] The cell nuclei were stained for 30 minutes by adding 50 µL DAPI (invitrogen, R37606). After washing twice with PBS, images were acquired on OPERETTA CLS™ (PE) by scanning the cells under a 20x water objective lens in non-confocal mode, with 5 fields of view captured per well. […] The inhibition rate was calculated using the fluorescence values from the Max and Min wells, and the dose-response curve was fitted using the analysis software GraphPad Prism 5 to obtain the IC50 value of each compound for the enzyme activity.

In another assay the test system is MDA-MB-436. Kind of assay: Anti-proliferative activity (CellTiter-Glo, 7 days), MDA-MB-436. It is filed as cell-based, human. The settings on record: Homo sapiens, MDA-MB-436, 168 h, read-out: MDA-MB-436 IC50.
The next assay relates to DLD-1 WT. Description: Anti-proliferative activity (CellTiter-Glo, 7 days), DLD-1 WT. It is filed as cell-based, human. As to conditions: Homo sapiens, DLD-1, 168 h; BRCA2-normal, 7 days. Here is the method: The anti-proliferation experiment of the compounds on tumour cells adopted the most widely used ATP concentration-based detection method at present. MDA-MB-231 and MDA-MB-436 cell lines were obtained from ATCC, DLD-1 human colourectal adenocarcinoma epithelial cells and DLD-1 BRCA2^-/- cells were obtained from Horizon, and the cells were revived. After the cells were stable, the cells were collected. When the viable cell count exceeded 90%, 450-500 cells were seeded into a 384-well plate. The next day, the example compounds with serially diluted concentrations were added. Only buffer was added to the Max well, and 50 µM AZD2281 was added to the Min well. The plate was incubated for 7 days, and on the eighth day, CellTiter-Glo® reagent (Promega, G7573) was added. The plate was incubated at room temperature for 30 minutes, and the values were read on Envision (PE). The inhibition rate was calculated using the fluorescence values from the Max and Min wells, and the dose-response curve was fitted using the analysis software GraphPad Prism 5 to obtain the IC50 value of each compound for the enzyme activity.
In general terms: In ATP-based viability assays light output follows the ATP content of the culture.

For another assay, the system named is MDA-MB-231. Kind of assay: Anti-proliferative activity (CellTiter-Glo, 7 days), MDA-MB-231. The settings on record: Homo sapiens, MDA-MB-231, 168 h, read-out: MDA-MB-231 IC50. Type of assay: cell-based, human.
The next assay addresses T3, PARP3 (Homo sapiens, UniProt Q9Y6F1).
T3 construct: purchased BPS 80503
T3 sequence (Q9Y6F1 1-533): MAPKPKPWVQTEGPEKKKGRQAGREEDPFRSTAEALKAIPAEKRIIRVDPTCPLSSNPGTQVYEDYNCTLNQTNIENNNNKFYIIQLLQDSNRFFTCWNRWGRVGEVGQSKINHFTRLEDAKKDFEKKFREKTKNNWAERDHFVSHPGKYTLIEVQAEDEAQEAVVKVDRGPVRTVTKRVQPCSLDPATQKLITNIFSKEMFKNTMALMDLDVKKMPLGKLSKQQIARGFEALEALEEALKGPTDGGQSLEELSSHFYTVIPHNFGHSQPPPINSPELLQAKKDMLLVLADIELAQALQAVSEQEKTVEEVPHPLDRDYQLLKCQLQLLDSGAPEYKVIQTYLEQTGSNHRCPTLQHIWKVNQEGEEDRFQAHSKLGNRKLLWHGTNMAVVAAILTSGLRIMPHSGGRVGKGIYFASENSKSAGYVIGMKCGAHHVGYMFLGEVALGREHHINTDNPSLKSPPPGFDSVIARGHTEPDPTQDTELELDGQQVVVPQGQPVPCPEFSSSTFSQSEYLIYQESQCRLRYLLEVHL
Description: Inhibition of PARP3 enzyme activity (chemiluminescence). It is filed as biochemical. The settings on record: ratio relative to the PARP1 enzyme activity.

Another assay deals with T4, PARP2 (Homo sapiens, UniProt Q9UGN5).
T4 construct: purchased BPS 80502
T4 sequence (Q9UGN5 whole entry): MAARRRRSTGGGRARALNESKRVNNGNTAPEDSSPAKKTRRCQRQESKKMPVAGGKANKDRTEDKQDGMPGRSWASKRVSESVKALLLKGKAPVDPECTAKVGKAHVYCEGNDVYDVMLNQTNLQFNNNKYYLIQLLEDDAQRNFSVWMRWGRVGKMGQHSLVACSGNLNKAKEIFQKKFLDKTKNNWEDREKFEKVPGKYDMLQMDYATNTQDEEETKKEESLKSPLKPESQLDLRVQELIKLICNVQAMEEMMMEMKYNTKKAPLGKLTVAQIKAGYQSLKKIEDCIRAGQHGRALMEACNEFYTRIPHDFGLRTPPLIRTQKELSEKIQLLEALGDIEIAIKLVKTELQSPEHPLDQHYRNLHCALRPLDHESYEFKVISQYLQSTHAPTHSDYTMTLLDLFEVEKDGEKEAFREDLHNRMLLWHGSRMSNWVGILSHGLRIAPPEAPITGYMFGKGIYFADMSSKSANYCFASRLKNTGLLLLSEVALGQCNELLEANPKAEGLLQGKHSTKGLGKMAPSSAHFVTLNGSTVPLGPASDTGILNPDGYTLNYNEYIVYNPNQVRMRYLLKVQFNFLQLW
Kind of assay: PARP2-DNA trapping, fluorescence polarization (FP). Type of assay: biochemical.

The mark [2] stands for this setting: ratio relative to the PARP1 enzyme activity.

Read-outs that look alike come from different tables or passages of the source.

Consider `CCc1cc2ncc(CN3CCN(c4ccc(C(=O)NC)nc4)CC3)cc2[nH]c1=O` [AZD5305, reference compound], for which, in assay [1] (FIG. 3), the tumour regression result was “promoted tumour regression”. In assay [1] (treatment 28 days), this compound gave an ORR of 20%. Moreover, the IC50 (as a rule, the midpoint of a concentration-inhibition curve) was 8660 nM on PARP6 (enzyme activity); 19.4 nM on PARP11 (enzyme activity); 2.12 nM with DLD-1 BRCA2^-/-; 2.2 nM in the assay on A549 WT; 1.94 nM in the assay on MDA-MB-436 (BRCA1-mutated, 7 days); greater than 10000 nM with DLD-1 WT. For the same compound, in the assay with MDA-MB-231 (BRCA1-normal, 7 days), the concentration for half-maximal inhibition (IC50) is greater than 10000 nM. Further, the “PARP6 multiple vs PARP1” value on PARP6 (setting [2]) is recorded as 20,619. Besides, on PARP11 (setting [2]), the “PARP11 multiple vs PARP1” value turned out to be 46.
Regarding `O=C(c1cc(Cc2n[nH]c(=O)c3ccccc23)ccc1F)N1CCN(C(=O)C2CC2)CC1` [Olaparib, olaparib], the “PARP3 multiple vs PARP1” value at PARP3 worked out at 47. For the same compound, the concentration for half-maximal inhibition (IC50) in the assay on MDA-MB-436 was 298 nM; in the assay with MDA-MB-231 it was 9520 nM. Besides, the Bottom on PARP2 (PARP2, 0.25 hour) is reported as -5.4; on PARP2 (PARP2, 0.5 hour), -2.7; at PARP2 (PARP2, 1 hour) it was 2.8; at PARP2 (PARP2, 2 hour), -2.0; at PARP2 (PARP2, 4 hour) it was -1.4; at PARP2 (PARP2, 8 hour), 1.8. The Bottom at PARP2 (PARP2, 24 hour) was 0.3; at PARP2 (PARP2, 48 hour), -1.6. The Hillslope on PARP2 (PARP2, 0.25 hour) came out at 1.2; at PARP2 (PARP2, 0.5 hour), 1.4; at PARP2 (PARP2, 1 hour) it was 2.0; on PARP2 (PARP2, 2 hour), 2.2; at PARP2 (PARP2, 4 hour), 1.9; at PARP2 (PARP2, 8 hour), 2.1. Moreover, the Hillslope is 2.0 at PARP2 (PARP2, 24 hour) and 1.8 on PARP2 (PARP2, 48 hour). In addition, the Top at PARP2 (PARP2, 0.25 hour) worked out at 107.8; at PARP2 (PARP2, 0.5 hour), 109.9; at PARP2 (PARP2, 1 hour), 109.4; at PARP2 (PARP2, 2 hour), 107.9; at PARP2 (PARP2, 4 hour), 107.2; on PARP2 (PARP2, 8 hour), 106.5. The Top is 109.8 on PARP2 (PARP2, 24 hour) and 110.6 on PARP2 (PARP2, 48 hour).
